Experimental data from patent US10435399B2, “HDAC6 inhibitory heterocyclic compound” (TAKEDA PHARMACEUTICAL COMPANY LIMITED, priority 2017, dated 2019).

Target: T1, HDAC6 enzyme (Homo sapiens, UniProt Q9UBN7)
T1 construct: transducing full length HDAC6 gene into Sf-9 insect cells; GST; purchased SignalChem; host or cells: Sf-9 insect cells
T1 sequence (Q9UBN7 1-1215): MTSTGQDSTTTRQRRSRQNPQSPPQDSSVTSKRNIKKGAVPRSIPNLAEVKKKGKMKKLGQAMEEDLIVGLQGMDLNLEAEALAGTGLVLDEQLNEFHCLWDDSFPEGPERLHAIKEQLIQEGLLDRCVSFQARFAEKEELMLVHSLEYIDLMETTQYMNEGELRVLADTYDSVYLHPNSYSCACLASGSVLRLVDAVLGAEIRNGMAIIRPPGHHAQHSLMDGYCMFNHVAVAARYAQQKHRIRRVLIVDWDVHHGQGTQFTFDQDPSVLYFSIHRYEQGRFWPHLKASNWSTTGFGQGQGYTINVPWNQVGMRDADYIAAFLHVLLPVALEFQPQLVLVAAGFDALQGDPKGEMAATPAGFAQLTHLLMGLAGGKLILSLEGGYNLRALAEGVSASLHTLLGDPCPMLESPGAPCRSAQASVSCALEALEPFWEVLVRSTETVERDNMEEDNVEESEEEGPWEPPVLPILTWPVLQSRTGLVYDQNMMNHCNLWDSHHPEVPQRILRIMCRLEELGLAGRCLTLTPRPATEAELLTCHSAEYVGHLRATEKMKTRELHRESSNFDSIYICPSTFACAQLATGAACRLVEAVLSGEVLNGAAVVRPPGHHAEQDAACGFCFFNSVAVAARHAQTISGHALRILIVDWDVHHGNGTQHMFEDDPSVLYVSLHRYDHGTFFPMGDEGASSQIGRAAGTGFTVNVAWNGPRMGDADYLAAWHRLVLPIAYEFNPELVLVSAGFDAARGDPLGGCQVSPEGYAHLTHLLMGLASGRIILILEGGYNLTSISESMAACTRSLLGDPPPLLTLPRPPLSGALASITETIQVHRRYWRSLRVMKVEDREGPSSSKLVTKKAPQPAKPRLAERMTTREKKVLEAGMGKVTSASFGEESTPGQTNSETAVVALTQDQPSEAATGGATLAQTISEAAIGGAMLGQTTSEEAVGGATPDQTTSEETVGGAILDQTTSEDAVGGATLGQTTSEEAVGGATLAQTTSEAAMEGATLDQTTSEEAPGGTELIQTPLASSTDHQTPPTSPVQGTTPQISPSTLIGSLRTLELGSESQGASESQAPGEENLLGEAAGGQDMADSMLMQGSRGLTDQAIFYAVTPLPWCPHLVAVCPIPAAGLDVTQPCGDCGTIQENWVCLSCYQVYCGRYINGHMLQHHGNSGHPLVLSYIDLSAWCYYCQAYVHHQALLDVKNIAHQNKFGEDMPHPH
Assay: HDAC6 enzyme inhibitory activity (HDAC-Glo I/II Assay kit)
Type: biochemical
Details: 10 μM; wells without enzyme = 100% inhibition; read-out: HDAC6 inhibitory rate (%) (10 μM)
Outline: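 Sf-9-derived GST-purified full-length HDAC6 + cpd, 60 min RT, 24 mM Tris pH 7.5/0.6 mM glutathione/0.01% Tween-20; add HDAC-Glo substrate-developer, 20 min RT; luminescence. No-enzyme = 100% inhibition.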

| SMILES | inhibition at 10 µM |
| --- | --- |
| O=C1c2cc(-c3nnc(C(F)F)o3)ccc2CN1C[C@H]1COCCN1C(=O)C1CCCC1 [Example 47] | 99% |
| CCCC(=O)N[C@@H]1CCCC[C@H]1N1Cc2ccc(-c3nnc(C(F)F)o3)cc2C1=O [Example 50, N-((1R,2R)-2-(6-(5-(difluoromethyl)-1,3,4-oxadiazol-2-yl)-1-oxo-1,3-dihydro-2H-isoindol-2-yl)cyclohexyl)butanamide] | 101% |
| CCCCCC(=O)N[C@@H]1CCCC[C@H]1N1Cc2ccc(-c3nnc(C(F)F)o3)cc2C1=O [Example 51, N-((1R,2R)-2-(6-(5-(difluoromethyl)-1,3,4-oxadiazol-2-yl)-1-oxo-1,3-dihydro-2H-isoindol-2-yl)cyclohexyl)hexanamide] | 99% |
| CCOC(=O)N[C@@H]1CCCC[C@H]1N1Cc2ccc(-c3nnc(C(F)F)o3)cc2C1=O [Example 52, ethyl ((1R,2R)-2-(6-(5-(difluoromethyl)-1,3,4-oxadiazol-2-yl)-1-oxo-1,3-dihydro-2H-isoindol-2-yl)cyclohexyl)carbamate] | 96% |
| O=C1c2cc(-c3nnc(C(F)F)o3)ccc2CN1[C@@H]1CCCC[C@H]1N1CCC2(CC2)C1=O [Example 53, 6-(5-(difluoromethyl)-1,3,4-oxadiazol-2-yl)-2-((1R,2R)-2-(4-oxo-5-azaspiro[2.4]hept-5-yl)cyclohexyl)isoindolin-1-one] | 98% |
| CCc1cc(CC)n([C@@H]2CCCC[C@H]2N2Cc3ccc(-c4nnc(C(F)F)o4)cc3C2=O)n1 [Example 54, 2-((1R,2R)-2-(3,5-diethyl-1H-pyrazol-1-yl)cyclohexyl)-6-(5-(difluoromethyl)-1,3,4-oxadiazol-2-yl)isoindolin-1-one] | 98% |

Other lines, results leading:

| inhibition at 10 µM | SMILES |
| --- | --- |
| 99% | O=C1c2cc(-c3nnc(C(F)F)o3)ccc2CN1C[C@H]1COCCN1C(=O)C1CC1 [Example 45, 2-(((3S)-4-(cyclopropylcarbonyl)morpholin-3-yl)methyl)-6-(5-(difluoromethyl)-1,3,4-oxadiazol-2-yl)isoindolin-1-one] |
| 97% | CC(C)OC(=O)N1CCOC[C@@H]1CN1Cc2ccc(-c3nnc(C(F)F)o3)cc2C1=O [Example 46, isopropyl (3S)-3-((6-(5-(difluoromethyl)-1,3,4-oxadiazol-2-yl)-1-oxo-1,3-dihydro-2H-isoindol-2-yl)methyl)morpholine-4-carboxylate] |
| 98% | COC(=O)N1CCOC[C@@H]1CN1Cc2ccc(-c3nnc(C(F)F)o3)cc2C1=O [Example 48, methyl (3S)-3-((6-(5-(difluoromethyl)-1,3,4-oxadiazol-2-yl)-1-oxo-1,3-dihydro-2H-isoindol-2-yl)methyl)morpholine-4-carboxylate] |
| 99% | Cc1ccc(S(=O)(=O)N2CCOC[C@@H]2CN2Cc3ccc(-c4nnc(C(F)F)o4)cc3C2=O)cc1 [Example 49, 6-(5-(difluoromethyl)-1,3,4-oxadiazol-2-yl)-2-(((3S)-4-((4-methylphenyl)sulfonyl)morpholin-3-yl)methyl)isoindolin-1-one] |
| 101% | O=C1c2cc(-c3nnc(C(F)F)o3)ccc2CN1[C@@H]1CCCC[C@H]1n1cc2ccccc2n1 [Example 55, 6-(5-(difluoromethyl)-1,3,4-oxadiazol-2-yl)-2-((1R,2R)-2-(2H-indazol-2-yl)cyclohexyl)isoindolin-1-one] |
| 92% | O=C1c2cc(-c3nnc(C(F)F)o3)ccc2CN1CC1CC1 [Example 56, 2-(cyclopropylmethyl)-6-(5-(difluoromethyl)-1,3,4-oxadiazol-2-yl)isoindolin-1-one] |
| 98% | O=C1c2cc(-c3nnc(C(F)F)o3)ccc2CN1Cc1ccccc1 [Example 58, 2-benzyl-6-(5-(difluoromethyl)-1,3,4-oxadiazol-2-yl)isoindolin-1-one] |
| 94% | O=C1c2cc(-c3nnc(C(F)F)o3)ccc2CN1Cc1ccc(C(F)(F)F)cc1 [Example 59, 6-(5-(difluoromethyl)-1,3,4-oxadiazol-2-yl)-2-(4-(trifluoromethyl)benzyl)isoindolin-1-one] |
